For six compounds, % of inhibition and % of control results are on record in ChEMBL document CHEMBL5465560, “Selectivity Literature for EUbOPEN Chemogenomic Library” (2024).

The target of assay [1] is T1, Dual specificity protein kinase TTK (Homo sapiens) (UniProt P33981).
T1 sequence (whole entry): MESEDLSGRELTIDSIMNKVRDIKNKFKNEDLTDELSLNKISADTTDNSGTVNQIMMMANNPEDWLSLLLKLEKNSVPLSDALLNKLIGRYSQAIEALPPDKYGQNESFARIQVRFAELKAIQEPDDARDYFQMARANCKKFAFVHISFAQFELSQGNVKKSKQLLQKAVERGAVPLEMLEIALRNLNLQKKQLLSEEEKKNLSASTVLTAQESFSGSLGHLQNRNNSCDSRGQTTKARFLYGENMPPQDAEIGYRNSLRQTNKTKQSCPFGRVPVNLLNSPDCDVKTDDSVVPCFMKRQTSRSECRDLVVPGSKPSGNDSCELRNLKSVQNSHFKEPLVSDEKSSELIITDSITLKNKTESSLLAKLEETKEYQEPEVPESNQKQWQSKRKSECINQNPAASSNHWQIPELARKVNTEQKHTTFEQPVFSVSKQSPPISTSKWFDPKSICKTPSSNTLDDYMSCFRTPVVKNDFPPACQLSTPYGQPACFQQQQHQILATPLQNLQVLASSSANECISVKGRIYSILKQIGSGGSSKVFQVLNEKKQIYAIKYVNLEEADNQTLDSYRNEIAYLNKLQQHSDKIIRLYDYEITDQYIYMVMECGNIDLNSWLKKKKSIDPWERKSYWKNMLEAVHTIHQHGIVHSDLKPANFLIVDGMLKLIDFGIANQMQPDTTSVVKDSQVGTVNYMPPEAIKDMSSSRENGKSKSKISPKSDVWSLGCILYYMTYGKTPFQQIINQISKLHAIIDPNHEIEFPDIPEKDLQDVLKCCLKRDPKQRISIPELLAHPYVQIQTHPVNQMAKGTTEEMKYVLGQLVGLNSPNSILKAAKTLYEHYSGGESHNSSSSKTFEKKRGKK
As to the kind of experiment: Selectivity interaction (LanthaScreen Eu Kinase Binding Assay) EUB0001632a TTK. Conditions: at 10 µM. On the technique in general: Time-resolved FRET reads energy transfer from a long-lived donor to a nearby acceptor.

The target in assay [2] is Tyrosine-protein kinase Lyn (Homo sapiens, UniProt P07948). Put plainly: Selectivity interaction (Kinase panel (Z-LYTE Assay)) EUB0001632a LYN. The note with it: at 10 µM.
In assay [3] the target is T2, Tyrosine-protein kinase TXK (Homo sapiens) (UniProt P42681).
T2 sequence (whole entry): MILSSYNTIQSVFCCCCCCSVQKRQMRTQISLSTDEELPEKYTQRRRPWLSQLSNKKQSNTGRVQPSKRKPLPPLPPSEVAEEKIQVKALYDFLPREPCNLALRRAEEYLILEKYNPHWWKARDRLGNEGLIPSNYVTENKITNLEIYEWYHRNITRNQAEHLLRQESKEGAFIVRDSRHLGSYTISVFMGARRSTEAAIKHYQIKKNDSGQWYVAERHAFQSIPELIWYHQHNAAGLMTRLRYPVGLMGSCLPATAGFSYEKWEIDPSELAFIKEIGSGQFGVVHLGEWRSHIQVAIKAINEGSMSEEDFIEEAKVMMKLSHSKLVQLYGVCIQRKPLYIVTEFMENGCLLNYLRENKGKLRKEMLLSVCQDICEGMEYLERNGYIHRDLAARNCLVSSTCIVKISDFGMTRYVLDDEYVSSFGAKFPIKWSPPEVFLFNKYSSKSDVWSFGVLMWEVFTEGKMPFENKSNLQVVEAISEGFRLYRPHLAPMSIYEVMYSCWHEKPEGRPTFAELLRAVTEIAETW
Conditions: at 10 µM.

Assay [4] deals with Calcium/calmodulin-dependent protein kinase type II subunit delta (Homo sapiens) (UniProt Q13557). As to the kind of experiment: Selectivity interaction (SelectScreen profiling (Invitrogen)) EUB0000607a CAMK2D. The note with it: at 2 µM.
The target of assay [5] is Wee1-like protein kinase (Homo sapiens) (UniProt P30291). As to the kind of experiment: Selectivity interaction (KinomeScan (DiscoverX)) EUB0000607a WEE1. The note with it: at 10 µM.
In assay [6] the target is Calcium/calmodulin-dependent protein kinase type II subunit alpha (Homo sapiens, UniProt Q9UQM7). Put plainly: Selectivity interaction (Upstate Kinase Profiler service (Millipore)) EUB0000056c CAMK2A. The note with it: at 1 µM.
Assay [7] has as its target T3, Muscle, skeletal receptor tyrosine-protein kinase (Homo sapiens) (UniProt O15146).
T3 sequence (whole entry): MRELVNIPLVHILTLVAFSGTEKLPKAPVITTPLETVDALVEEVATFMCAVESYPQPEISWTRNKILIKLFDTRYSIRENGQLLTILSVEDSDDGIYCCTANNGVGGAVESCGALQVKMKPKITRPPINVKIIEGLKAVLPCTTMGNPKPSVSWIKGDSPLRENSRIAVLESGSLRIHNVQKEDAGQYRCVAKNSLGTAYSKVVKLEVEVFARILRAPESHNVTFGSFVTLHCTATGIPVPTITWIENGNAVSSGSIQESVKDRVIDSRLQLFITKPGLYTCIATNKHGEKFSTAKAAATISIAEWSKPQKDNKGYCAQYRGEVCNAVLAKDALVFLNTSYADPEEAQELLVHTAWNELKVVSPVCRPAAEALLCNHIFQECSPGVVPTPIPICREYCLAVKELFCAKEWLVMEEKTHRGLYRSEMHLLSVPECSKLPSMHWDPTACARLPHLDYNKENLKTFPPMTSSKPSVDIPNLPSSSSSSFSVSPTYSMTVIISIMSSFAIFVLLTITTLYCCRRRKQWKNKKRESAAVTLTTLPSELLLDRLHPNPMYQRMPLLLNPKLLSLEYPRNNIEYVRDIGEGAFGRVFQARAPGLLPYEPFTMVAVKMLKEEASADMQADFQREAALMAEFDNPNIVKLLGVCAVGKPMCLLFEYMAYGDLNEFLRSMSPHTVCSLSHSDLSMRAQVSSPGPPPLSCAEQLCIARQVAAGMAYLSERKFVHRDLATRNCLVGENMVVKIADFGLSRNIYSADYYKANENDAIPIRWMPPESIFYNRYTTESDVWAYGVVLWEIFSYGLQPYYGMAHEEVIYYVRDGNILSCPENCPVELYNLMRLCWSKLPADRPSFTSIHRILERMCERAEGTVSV
Put plainly: Selectivity interaction (KinomeScan (DiscoverX)) EUB0000618a MUSK. The note with it: at 10 µM.

Assay [8] addresses 5-hydroxytryptamine receptor 6 (Homo sapiens) (UniProt P50406). As to the kind of experiment: Selectivity interaction (GPCR panel (PDSP screen)) EUB0001079a HTR6. Conditions: at 10 µM.

Each structure is given as a SMILES string.

Tyrosine-protein kinase Lyn, sequence (P07948 2-512 limits assumed): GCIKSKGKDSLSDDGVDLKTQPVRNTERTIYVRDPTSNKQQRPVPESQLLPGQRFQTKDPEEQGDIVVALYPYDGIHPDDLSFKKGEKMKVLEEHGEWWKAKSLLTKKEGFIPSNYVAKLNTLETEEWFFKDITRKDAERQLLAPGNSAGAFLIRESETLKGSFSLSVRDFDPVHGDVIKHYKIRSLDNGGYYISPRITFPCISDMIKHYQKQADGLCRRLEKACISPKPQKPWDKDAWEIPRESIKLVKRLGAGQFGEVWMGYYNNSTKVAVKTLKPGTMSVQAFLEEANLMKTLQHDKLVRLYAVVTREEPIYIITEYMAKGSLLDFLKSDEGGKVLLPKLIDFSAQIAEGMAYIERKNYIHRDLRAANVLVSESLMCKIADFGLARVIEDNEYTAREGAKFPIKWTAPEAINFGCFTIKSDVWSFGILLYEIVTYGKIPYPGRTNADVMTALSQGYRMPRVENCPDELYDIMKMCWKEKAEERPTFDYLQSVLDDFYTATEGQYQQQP
Wee1-like protein kinase (Homo sapiens), sequence (P30291 whole entry, looked up): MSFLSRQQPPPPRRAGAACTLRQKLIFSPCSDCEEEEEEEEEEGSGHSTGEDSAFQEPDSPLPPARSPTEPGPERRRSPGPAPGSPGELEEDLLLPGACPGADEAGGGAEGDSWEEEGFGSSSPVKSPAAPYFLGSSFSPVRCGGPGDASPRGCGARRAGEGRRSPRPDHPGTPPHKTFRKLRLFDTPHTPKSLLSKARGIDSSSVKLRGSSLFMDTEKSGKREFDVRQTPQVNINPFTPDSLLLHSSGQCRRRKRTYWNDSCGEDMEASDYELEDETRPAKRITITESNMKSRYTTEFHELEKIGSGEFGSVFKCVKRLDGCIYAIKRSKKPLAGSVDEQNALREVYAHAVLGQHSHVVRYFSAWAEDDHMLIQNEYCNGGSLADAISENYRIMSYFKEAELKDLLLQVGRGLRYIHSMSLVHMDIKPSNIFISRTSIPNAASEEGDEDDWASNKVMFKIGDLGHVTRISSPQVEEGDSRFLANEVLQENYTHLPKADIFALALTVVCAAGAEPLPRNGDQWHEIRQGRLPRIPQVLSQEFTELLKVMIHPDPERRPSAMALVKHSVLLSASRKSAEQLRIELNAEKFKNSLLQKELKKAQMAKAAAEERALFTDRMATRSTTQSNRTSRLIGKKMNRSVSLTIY
Calcium/calmodulin-dependent protein kinase type II subunit delta (Homo sapiens), sequence (Q13557 whole entry): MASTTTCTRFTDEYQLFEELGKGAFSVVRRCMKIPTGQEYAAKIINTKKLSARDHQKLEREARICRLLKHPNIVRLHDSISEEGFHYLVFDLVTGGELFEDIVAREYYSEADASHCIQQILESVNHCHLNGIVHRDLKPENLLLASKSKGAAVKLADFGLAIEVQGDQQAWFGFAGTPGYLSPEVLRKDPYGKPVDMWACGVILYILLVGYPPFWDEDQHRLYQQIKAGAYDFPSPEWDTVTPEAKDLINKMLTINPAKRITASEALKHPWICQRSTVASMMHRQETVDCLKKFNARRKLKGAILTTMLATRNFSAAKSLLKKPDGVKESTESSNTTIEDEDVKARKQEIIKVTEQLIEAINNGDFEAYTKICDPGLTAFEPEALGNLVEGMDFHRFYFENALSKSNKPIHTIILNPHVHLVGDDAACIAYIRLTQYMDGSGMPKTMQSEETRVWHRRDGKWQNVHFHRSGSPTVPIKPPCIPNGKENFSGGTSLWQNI
5-hydroxytryptamine receptor 6 (Homo sapiens), sequence (P50406 whole entry): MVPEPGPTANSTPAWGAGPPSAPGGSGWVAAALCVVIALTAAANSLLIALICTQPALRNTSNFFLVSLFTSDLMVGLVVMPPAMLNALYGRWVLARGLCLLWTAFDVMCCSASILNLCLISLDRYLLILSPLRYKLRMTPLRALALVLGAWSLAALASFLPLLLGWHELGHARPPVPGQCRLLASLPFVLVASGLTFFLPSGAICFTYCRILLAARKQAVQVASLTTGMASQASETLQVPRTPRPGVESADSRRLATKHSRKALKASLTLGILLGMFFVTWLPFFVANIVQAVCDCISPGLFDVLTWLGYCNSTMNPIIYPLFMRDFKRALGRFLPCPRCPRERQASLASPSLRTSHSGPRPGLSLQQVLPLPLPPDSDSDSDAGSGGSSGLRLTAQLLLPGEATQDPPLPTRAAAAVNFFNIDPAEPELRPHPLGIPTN
Calcium/calmodulin-dependent protein kinase type II subunit alpha, sequence (Q9UQM7 whole entry): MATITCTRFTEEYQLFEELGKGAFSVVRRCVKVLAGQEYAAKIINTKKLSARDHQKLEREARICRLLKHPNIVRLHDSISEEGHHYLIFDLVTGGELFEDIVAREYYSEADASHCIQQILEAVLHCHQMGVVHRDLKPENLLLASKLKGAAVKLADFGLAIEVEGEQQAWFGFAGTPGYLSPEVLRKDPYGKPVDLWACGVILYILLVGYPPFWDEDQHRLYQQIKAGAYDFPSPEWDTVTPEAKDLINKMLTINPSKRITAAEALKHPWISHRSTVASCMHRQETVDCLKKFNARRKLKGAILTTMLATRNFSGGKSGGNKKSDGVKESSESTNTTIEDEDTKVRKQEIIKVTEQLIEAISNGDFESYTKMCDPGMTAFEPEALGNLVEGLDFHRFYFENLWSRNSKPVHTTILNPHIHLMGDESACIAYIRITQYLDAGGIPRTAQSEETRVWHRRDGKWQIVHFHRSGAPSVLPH

`Cn1cc(-n2cnc3c(NCc4nc5cc(Cl)c(Cl)cc5[nH]4)nc(N4CCOCC4)nc32)cn1`: in assay [1], the % of inhibition is -54.1%. The same compound gave a % of control in assay [2] of 6.83%.

`CCN(CC)CCCCNc1ncc2cc(-c3cc(OC)cc(OC)c3)c(NC(=O)NC(C)(C)C)nc2n1` registered a % of control in assay [3] of 100%.

As for `CNC(=O)Nc1ccc(-c2nc(N3CC4CCC(C3)O4)c3cnn(C4CCC5(CC4)OCCO5)c3n2)cc1`, the % of inhibition in assay [4] was 11%. Further, in assay [5], the % of control was 79%.

`Cc1ccc(-c2ccc3c(ccc4sc5c(c43)NC[C@@H](C)NC5=O)n2)cn1`: the % of inhibition in assay [6] was determined as 87%.

As to `O[C@H]1CC[C@H](Nc2ncc3nc(Nc4c(F)cc(F)cc4F)n([C@H]4CCOC4)c3n2)CC1`, in assay [7], the % of control came to 63%.

As to `Nc1cnc(N2CCc3cc(S(=O)(=O)Nc4c(F)cc(Cl)cc4F)cc(N4CCCC4=O)c32)nc1` [TP-020n], the % of inhibition in assay [8] was -26.7%.
